The record followed here is patent publication US20250034165A1, “COMPOUND CONTAINING CYCLOALKYL OR HALOALKYL” (CHIA TAI TIANQING PHARMACEUTICAL GROUP CO., LTD., priority 2021, published 2025).

The target in series [1] is EGFR (d746-750/T790M/C797S) (Homo sapiens (Human), UniProt P00533, C797S/DEL746-750/T790M). Kind of series: Inhibitory activity for EGFR (d746-750/T790M/C797S) kinase. It is filed as biochemical. The following applies: ATP 5 μM; read-out: EGFR(d19/T790M/C797S) (IC50). As for the experimental part: 1.5 Screening for Inhibitory Activity for EGFR (d746-750/T790M/C797S) Kinase
(§1) A 50 ng/μL EGFR (d746-750/T790M/C797S, BPS) stock solution was diluted with a kinase buffer (50 mM HEPES, 10 mM MgCl2, 2 mM DTT, 1 mM EGTA, 0.01% Tween 20), and 6 μL of 1.67× working solution at 0.05 ng/μL (final concentration: 0.03 ng/μL) was added to each well. Different compounds dissolved in DMSO were added to the wells using a nanoliter pipettor, resulting in the final concentrations of the compounds of 10 nM to 0.0024 nM (4-fold gradient for 7 concentrations in total), and blank control wells (without enzyme) and negative control wells (with enzyme, plus vehicle DMSO) were set, 2 replicate wells for each concentration. After enzyme was reacted with the compound or vehicle for 30 min, 5×ATP at 25 μM (final concentration: 5 μM, Sigma) prepared with a kinase buffer was mixed with 5× substrate at 0.5 μM (final concentration: 0.1 μM, ULight-poly GT, PerkinElmer) at a ratio of 1:1 (v:v), and the mixture was added to each well at 4 μL/well. After being sealed with a film, the plate was incubated at room temperature for 2 h, and then 5 μL of 4×EDTA at 40 mM (final concentration: 10 mM) was added to each well. After the plate was incubated for 5 min at room temperature, 5 μL of 4× detection reagent at 8 nM (final concentration: 2 nM, Eu-anti-phospho-tyrosine antibody, PerkinElmer) was added to each well. After being incubated at room temperature for 1 h, the plate was read using a PerkinElmer Envision multi-mode microplate reader (excitation: 320 nm, emission: 665 nm), and IC50 was calculated by four-parameter fitting.

Series [2] has as its system BAF3-EGFR (L858R/T790M/C797S) cells. The experiment in a line: Inhibition of proliferation of BAF3-EGFR (L858R/T790M/C797S) cells, CCK-8. The class given is cell-based. The following applies: Ba/F3 EGFR, 72 h, read-out: BAF3(EGFR T790M L858R C797S) cell inhibitory activity IC50. As for the experimental part: A flask of EGFR (L858R/T790M/C797S) cells in the logarithmic growth phase and good conditions was taken, and the cells were collected and added to a centrifuge tube. 20 μL of cells were taken and counted, and the required number of cells (mL) was pipetted and centrifuged at 1200 rpm for 3 min. The supernatant was discarded, and an appropriate amount of plating medium (RPMI medium+10% FBS) was added to adjust the cell density to 1.5×10^5 cells/mL. The cells were seeded on a 96-well plate at 100 μL/well using a multi-channel pipette and cultured in a cell incubator at 37° C., 5% CO2 with saturated humidity. After overnight incubation, compounds were loaded using a nanoliter pipettor, 2 duplicate wells were set for each concentration, and cells without compound added were used as negative controls.
(§2) Inhibition rate (%)=(mean value of negative control group-mean value of experimental group)/(mean value of negative control group−mean value of blank group)×100%.
(§3) A dose-response curve was fitted by four-parameter analysis, with the logarithm of compound concentration serving as abscissa and inhibition rate serving as ordinate, such that IC50 was calculated.

The subject of series [3] is PC-9 EGFR-Del19-T790M-C797S cells. The experiment in a line: Inhibition of proliferation of PC-9-EGFR (Del19 T790M C797S) cells, CCK-8. It is filed as cell-based. Particulars: 72 h, read-out: PC-9-EGFR (Del19 T790M C797S) cell inhibitory activity IC50. On the procedure: PC-9 EGFR-Del19-T790M-C797S cells in the logarithmic growth phase and good conditions were taken, washed with PBS, digested with pancreatin, terminated with a complete medium, collected and added to a centrifuge tube, adjusted to a cell density of 2×10^4 cells/mL, and seeded in a 96-well plate (100 μL/well). Meanwhile, compounds were loaded using a nanoliter pipettor resulting in the final concentrations of the compounds of 1000 nM-0.06 nM, and a control was set, replicate wells for each concentration. After 72 h of incubation in the cell incubator, the assay reagent CCK-8 (manufacturer: Dojindo Laboratories, Beijing; 10 μL/well) was added. After 2 h of incubation in the cell incubator, absorbance was measured at 450 nm on a PerkinElmer Envision microplate reader, and the inhibition rate was calculated.
as §2, §3

Series [4] has as its target EGFR (d746-750 (d19)/T790M) (Homo sapiens (Human), UniProt P00533, DEL746-750/T790M). Kind of series: Inhibitory activity for EGFR (d746-750 (d19)/T790M) kinase. The class given is biochemical. The following applies: ATP 5 μM. On the procedure: 1.3 Screening for Inhibitory Activity for EGFR (d746-750 (d19)/T790M) Kinase
as §1, with “(d746-750/T790M, Carna)” for “(d746-750/T790M/C797S, BPS)”, “0.005” for “0.05”, “0.003” for “0.03”

Series [5] in a line: In vivo pharmacokinetics in ICR mice. The following applies: for AUC(0-inf) / AUC(0-t) / MRT last / half-life / bioavailability / Cmax / Tmax: mouse, plasma; for AUC(0-t): read-out: AUC(0-t); for MRT last: read-out: MRT(0-t); for half-life: read-out: T½ (converted); for bioavailability: 10 mg/kg, PO vs IV; for Cmax: read-out: Cmax; for Tmax: read-out: Tmax. On the procedure: The animals to be tested (ICR mice) were fasted for 12 h before administration and food was provided 4 h after administration, and water was freely drunk before and after the experiment and during the experiment.
After intragastric administration, about 0.1 mL of blood was collected from the orbit at 0 min, 15 min, 30 min, 1 h, 2 h, 4 h, 6 h, 8 h, 10 h, and 24 h. After anticoagulation with EDTA-K2, blood samples were transferred to a centrifuge within 30 min, and centrifuged at 4000 rpm for 10 min at 4° C. to separate the plasma. All the plasma samples were collected and immediately stored at −20° C. for testing.
300 μL of acetonitrile solution containing an internal standard ([…] diazepam) was added to 20 μL of the plasma sample to be tested and a standard curve sample. The mixture was shaken and homogeneously mixed for 5 min, and centrifuged at 12,000 rpm for 10 min. 70 μL of supernatant was taken and diluted with 70 μL of ultrapure water. After being mixed well, 2 μL of the resulting sample was subjected to LC/MS/MS, and a chromatogram was recorded.

Read-outs that look alike come from different tables or passages of the source. Some results are limits rather than exact numbers.

Chain of EGFR (d746-750 (d19)/T790M) (P00533 other isoform, or with tags, fused parts or gaps T790M/del 1-668/del 746-750 limits assumed): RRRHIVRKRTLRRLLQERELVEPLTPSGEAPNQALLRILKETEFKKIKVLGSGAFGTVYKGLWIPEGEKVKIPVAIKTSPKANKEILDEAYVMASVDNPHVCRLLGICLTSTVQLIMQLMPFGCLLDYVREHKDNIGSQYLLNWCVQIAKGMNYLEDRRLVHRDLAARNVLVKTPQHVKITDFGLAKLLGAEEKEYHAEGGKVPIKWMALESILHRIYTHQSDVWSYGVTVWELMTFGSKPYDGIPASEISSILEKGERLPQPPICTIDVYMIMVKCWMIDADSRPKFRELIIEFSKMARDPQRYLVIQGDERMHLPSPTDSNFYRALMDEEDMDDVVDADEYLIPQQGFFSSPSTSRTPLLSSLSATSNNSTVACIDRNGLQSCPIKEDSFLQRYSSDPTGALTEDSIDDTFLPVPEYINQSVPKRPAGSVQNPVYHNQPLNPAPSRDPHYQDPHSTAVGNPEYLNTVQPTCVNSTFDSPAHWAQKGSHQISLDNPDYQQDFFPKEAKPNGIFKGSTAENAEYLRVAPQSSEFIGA
Chain of EGFR (d746-750/T790M/C797S) (P00533 other isoform, or with tags, fused parts or gaps T790M/C797S/del 1-694/del 746-750 limits assumed): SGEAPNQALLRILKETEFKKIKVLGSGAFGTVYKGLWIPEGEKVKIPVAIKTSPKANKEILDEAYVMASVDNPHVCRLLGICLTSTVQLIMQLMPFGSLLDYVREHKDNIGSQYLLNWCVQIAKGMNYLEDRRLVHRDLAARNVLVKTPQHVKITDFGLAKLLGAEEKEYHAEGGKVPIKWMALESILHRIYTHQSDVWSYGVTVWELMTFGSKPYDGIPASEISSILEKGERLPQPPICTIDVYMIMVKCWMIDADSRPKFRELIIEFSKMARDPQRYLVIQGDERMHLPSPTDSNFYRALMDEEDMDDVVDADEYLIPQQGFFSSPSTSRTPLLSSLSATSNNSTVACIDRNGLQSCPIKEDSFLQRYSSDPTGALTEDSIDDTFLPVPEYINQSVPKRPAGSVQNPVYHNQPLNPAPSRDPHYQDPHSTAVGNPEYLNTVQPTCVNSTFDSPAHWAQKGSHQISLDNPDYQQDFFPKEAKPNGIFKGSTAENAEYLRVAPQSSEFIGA

For `[2H]C([2H])([2H])N(C[C@H](C)Nc1ccc2c(c1)N1C[C@H](C3CC3)CCCOc3c(cnn3C)-c3cc(cc(C)n3)C(=O)/N=C/1N2)C([2H])([2H])[2H]` [Example 123], the IC50 in series [1] is 0.1 nM; in series [2], under 5 nM; in series [3], under 50 nM.
For `Cc1cc2cc(n1)-c1cnn(C)c1OCCC[C@@H](C1CC1)CN1/C(=N/C2=O)Nc2cc(N[C@H]3CC[C@H](O)CC3)ccc21` [Example 151], in that order: 0.12 nM, under 5 nM and under 50 nM.
Consider `Cc1cc2cc(n1)-c1cnn(C)c1OCCC[C@@H](C1CC1)CN1/C(=N/C2=O)Nc2ccc(NC3CC(N(C)C)C3)cc21` (some centres unmarked) [Example 98], for which the values for the IC50 in series [4], in series [2] and in series [3] were 0.087 nM, under 5 nM and under 50 nM, respectively.
Consider `Cc1cc2cc(n1)-c1cnn(C)c1OCCC[C@@H](C1CC1)CN1/C(=N/C2=O)Nc2ccc(N(C)[C@@H](C)CN(C)C)cc21` [Example 85], for which the IC50 in series [3] was under 50 nM.
Compound `Cc1cc2cc(n1)-c1cnn(C)c1OCCC[C@@H](C1CC1)CN1/C(=N/C2=O)Nc2ccc(N[C@H]3C[C@H](N(C)C)C3)cc21` [Example 128] came in with a CLz in series [5] (IV) of 4.52 L/h/kg. In series [5] (1 mg/kg, IV), the AUC(0-inf) was 221 ng·h/mL, the AUC(0-t) amounted to 214 ng·h/mL, the MRT last turned out to be 1.65 h and the half-life is 130 min. Further, the bioavailability in series [5] came out at 30.5%. Moreover, in series [5] (PO, 10 mg/kg intragastric), the AUC(0-inf) was found to be 662 ng·h/mL, the AUC(0-t) stood at 654 ng·h/mL, the Cmax amounted to 57.8 ng/mL and the MRT last turned out to be 6.81 h. Also, in series [5] (PO, 10 mg/kg intragastric), the Tmax is 6 h and the half-life was 208 min. For the same compound, the IC50 in series [4] came to 0.13 nM. For the same compound, the IC50 in series [3] is under 50 nM.
Take `Cc1cc2cc(n1)-c1cnn(C)c1OCCC[C@@H](C1CC1)CN1/C(=N/C2=O)Nc2ccc(N(C)C3CCN(C)CC3)cc21` [Example 117]: in series [5] (IV), the CLz stood at 3.49 L/h/kg. Also, in series [5] (1 mg/kg, IV), the AUC(0-inf) amounted to 286 ng·h/mL, the AUC(0-t) stood at 284 ng·h/mL, the MRT last came to 3.3 h and the half-life was 131 min. Moreover, the bioavailability in series [5] came to 29.1%. Also, in series [5] (PO, 10 mg/kg intragastric), the AUC(0-inf) turned out to be 848 ng·h/mL, the AUC(0-t) was found to be 826 ng·h/mL, the Cmax came to 77.1 ng/mL and the MRT last amounted to 6.79 h. Also, in series [5] (PO, 10 mg/kg intragastric), the Tmax was 6 h and the half-life was 250 min. This compound also yielded an IC50 in series [4] of 0.12 nM. Besides, the IC50 in series [3] is under 50 nM.
Turning to `Cc1cc2cc(n1)-c1cnn(C)c1OCCC[C@@H](C1CC1)CN1/C(=N/C2=O)Nc2ccc(N[C@@H](C)CCN3CCCCC3)cc21` [Example 144], the IC50 in series [1] is 0.068 nM; in series [2], under 5 nM; in series [3], under 50 nM.
With `Cc1cc2cc(n1)-c1cnn(C)c1OCCC[C@@H](C1CC1)CN1/C(=N/C2=O)Nc2cc(NCCCCN)ccc21` [Example 53], the IC50 in series [4] is 0.0098 nM; in series [1], 0.013 nM; in series [2], under 5 nM.
In the case of `Cc1cc2cc(n1)-c1cnn(C)c1OCCC[C@@H](C1CC1)CN1/C(=N/C2=O)Nc2ccc(N[C@H](C)CCN3CCCCC3)cc21` [Example 143], the IC50 was 0.079 nM in series [1], under 5 nM in series [2] and under 50 nM in series [3].
With `[2H]C([2H])([2H])N(CCN(C)C)c1ccc2c(c1)N1C[C@H](C3CC3)CCCOc3c(cnn3C)-c3cc(cc(C)n3)C(=O)/N=C/1N2` [Example 116], in series [3], the IC50 is under 50 nM.
For the compound `CNCCCCNc1ccc2c(c1)N/C1=N\C(=O)c3cc(C)nc(c3)-c3cnn(C)c3OCCC[C@@H](C3CC3)CN12` [Example 52], the IC50 in series [4] is 0.021 nM; in series [1], 0.028 nM; in series [2], under 5 nM.
On to `[2H]C([2H])([2H])N(C[C@@H](C)Nc1ccc2c(c1)N/C1=N\C(=O)c3cc(C)nc(c3)-c3cnn(C)c3OCCC[C@@H](C3CC3)CN12)C([2H])([2H])[2H]` [Example 146], for which the IC50 in series [1] is 0.074 nM; in series [2], under 5 nM; in series [3], under 50 nM.
For `Cc1cc2cc(n1)-c1cnn(C)c1OCCC[C@@H](C1CC1)CN1/C(=N/C2=O)Nc2cc(N[C@H](C)CCN3CCCCC3)ccc21` [Example 139] the same measures were 0.076 nM, under 5 nM and under 50 nM.
In the case of `Cc1cc2cc(n1)-c1cnn(C)c1OCCC[C@@H](C1CC1)CN1/C(=N/C2=O)Nc2ccc(N[C@H]3CC[C@H](N(C)C)C3)cc21` [Example 136], the IC50 is 0.15 nM in series [4] and under 50 nM in series [3].
With `Cc1cc2cc(n1)-c1cnn(C)c1OCCC[C@@H](C1CC1)CN1/C(=N/C2=O)Nc2ccc(N[C@H](C)CN3CCCCC3)cc21` [Example 141], the IC50 was 0.072 nM in series [1], under 5 nM in series [2] and under 50 nM in series [3].

One may read the AUC(0-inf) as the area under the concentration-time curve extrapolated to infinity. For orientation: AUC(0-t) means the area under the concentration-time curve up to a stated or last time point. Broadly, the bioavailability is dose-corrected exposure relative to a reference, in per cent. One may read the Cmax as the peak of the concentration-time curve. The term Tmax denotes the time at which the peak concentration occurs.
